Test results from ChEMBL document CHEMBL1153157, “Discovery of benzimidazole-diamide finger loop (Thumb Pocket I) allosteric inhibitors of HCV NS5B polymerase: Implementing parallel synthesis for rapid linker optimization” (Bioorg Med Chem Lett, 2010).
Values after ≈ are worked out from the molar mass of the structure shown. Active and inactive are the calls of the source. The calls are words filed in the database; no cut-off is given here.

What was measured:
Hepatitis C virus [1] = assay: Inhibition of N-terminal hexahistidine tagged HCV 1b NS5B polymerase expressed in baculovirus infected Sf21 cells after 90 mins by SPA; design: species or system Hepatitis C virus subtype 1b; conditions: Sf21, 1.5 h
Hepatitis C virus [2] = assay: Antiviral activity against Hepatitis C virus subtype 1b by cell-based replicon assay; type: functional, organism-based, Hepacivirus hominis; conditions: genotype 1b
[3] = Lipophilicity, log D at pH 7.4; type: physicochemical; conditions: buffer
[4] = Aqueous solubility at pH 7.2; type: physicochemical; conditions: buffer
Liver microsomes = assay: (§1) Half life in human liver microsomes at 10 uM; type: ADME, Microsome; conditions: microsomes, 10 µM
Cytochrome P450 1A2 = target: T1, Cytochrome P450 1A2 (Homo sapiens, UniProt P05177); assay: Inhibition of human liver CYP1A2; type: ADME
T1 sequence (P05177 whole entry): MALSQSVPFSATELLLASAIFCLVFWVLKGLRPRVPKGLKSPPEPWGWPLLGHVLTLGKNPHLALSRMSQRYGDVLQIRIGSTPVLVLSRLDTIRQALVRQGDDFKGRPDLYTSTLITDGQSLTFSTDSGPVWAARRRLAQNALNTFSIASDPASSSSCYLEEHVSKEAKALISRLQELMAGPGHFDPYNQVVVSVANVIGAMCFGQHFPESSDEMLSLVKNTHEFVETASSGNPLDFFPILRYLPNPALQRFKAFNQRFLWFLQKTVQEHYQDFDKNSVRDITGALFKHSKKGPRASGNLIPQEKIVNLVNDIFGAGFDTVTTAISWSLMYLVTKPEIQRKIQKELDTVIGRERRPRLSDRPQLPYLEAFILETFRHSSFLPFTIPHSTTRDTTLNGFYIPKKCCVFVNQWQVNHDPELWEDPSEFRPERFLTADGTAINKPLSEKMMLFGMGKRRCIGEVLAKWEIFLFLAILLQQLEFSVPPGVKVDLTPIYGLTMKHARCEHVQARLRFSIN

Cytochrome P450 2C9 = Cytochrome P450 2C9 (Homo sapiens, UniProt P11712); assay: Inhibition of human liver CYP2C9; type: ADME
Cytochrome P450 2C19 = Cytochrome P450 2C19 (Homo sapiens, UniProt P33261); assay: Inhibition of human liver CYP2C19; type: ADME
Cytochrome P450 2D6 = Cytochrome P450 2D6 (Homo sapiens, UniProt P10635); assay: Inhibition of human liver CYP2D6; type: ADME
Cytochrome P450 3A4 = Cytochrome P450 3A4 (Homo sapiens, UniProt P08684); assay: Inhibition of human liver CYP3A4; type: ADME
Enterovirus C = assay: Inhibition of Poliovirus RNA dependent RNA polymerase expressed in Escherichia coli BL21 (DE3) up to 200 uM after 90 mins by SPA
Bos taurus = species on record: Bos taurus; assay: Inhibition of calf thymus DNA-dependent RNA polymerase up to 200 uM after 120 mins
[5] = as §1; type: ADME, Microsome; conditions: liver microsomes

Chain of Cytochrome P450 3A4 (P08684 whole entry): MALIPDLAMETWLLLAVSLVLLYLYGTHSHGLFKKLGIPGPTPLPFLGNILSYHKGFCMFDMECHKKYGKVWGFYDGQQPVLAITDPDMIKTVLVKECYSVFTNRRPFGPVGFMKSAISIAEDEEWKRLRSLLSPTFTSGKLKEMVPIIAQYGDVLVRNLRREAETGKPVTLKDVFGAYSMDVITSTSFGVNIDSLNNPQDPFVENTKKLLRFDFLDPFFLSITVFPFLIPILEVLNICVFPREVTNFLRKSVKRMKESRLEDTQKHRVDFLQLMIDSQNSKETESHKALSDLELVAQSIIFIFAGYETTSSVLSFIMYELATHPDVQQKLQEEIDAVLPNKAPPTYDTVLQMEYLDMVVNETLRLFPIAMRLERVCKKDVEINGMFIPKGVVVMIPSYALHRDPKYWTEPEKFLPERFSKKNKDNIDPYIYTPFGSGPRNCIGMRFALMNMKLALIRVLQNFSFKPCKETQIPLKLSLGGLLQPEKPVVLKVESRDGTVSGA
Chain of Cytochrome P450 2C19 (P33261 whole entry): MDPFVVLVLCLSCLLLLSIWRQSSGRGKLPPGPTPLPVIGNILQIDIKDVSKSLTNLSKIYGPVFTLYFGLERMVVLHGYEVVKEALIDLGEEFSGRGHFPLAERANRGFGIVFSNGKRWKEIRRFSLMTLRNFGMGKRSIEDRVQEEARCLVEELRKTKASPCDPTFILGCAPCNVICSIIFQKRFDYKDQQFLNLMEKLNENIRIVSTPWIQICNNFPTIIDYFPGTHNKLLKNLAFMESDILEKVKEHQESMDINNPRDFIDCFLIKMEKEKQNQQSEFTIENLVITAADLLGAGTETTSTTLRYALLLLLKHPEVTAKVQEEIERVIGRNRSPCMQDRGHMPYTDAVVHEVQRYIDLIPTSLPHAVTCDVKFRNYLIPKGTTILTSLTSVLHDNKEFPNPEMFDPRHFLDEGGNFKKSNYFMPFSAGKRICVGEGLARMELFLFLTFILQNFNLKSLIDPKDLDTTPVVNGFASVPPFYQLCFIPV
Chain of Cytochrome P450 2C9 (P11712 whole entry): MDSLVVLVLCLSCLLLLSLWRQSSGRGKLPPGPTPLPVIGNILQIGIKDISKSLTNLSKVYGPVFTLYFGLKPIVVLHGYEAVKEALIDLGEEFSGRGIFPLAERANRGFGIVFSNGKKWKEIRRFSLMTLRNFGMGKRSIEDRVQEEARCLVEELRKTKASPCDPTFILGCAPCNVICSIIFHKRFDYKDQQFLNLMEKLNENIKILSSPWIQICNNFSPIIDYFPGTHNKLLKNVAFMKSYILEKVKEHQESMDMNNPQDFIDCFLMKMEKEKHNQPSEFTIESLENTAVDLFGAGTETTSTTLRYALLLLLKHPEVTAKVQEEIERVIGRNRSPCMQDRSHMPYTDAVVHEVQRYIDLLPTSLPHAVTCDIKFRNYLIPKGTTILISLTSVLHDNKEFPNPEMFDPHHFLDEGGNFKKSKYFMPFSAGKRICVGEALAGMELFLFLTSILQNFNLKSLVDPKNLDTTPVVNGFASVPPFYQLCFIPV
Chain of Cytochrome P450 2D6 (P10635 whole entry): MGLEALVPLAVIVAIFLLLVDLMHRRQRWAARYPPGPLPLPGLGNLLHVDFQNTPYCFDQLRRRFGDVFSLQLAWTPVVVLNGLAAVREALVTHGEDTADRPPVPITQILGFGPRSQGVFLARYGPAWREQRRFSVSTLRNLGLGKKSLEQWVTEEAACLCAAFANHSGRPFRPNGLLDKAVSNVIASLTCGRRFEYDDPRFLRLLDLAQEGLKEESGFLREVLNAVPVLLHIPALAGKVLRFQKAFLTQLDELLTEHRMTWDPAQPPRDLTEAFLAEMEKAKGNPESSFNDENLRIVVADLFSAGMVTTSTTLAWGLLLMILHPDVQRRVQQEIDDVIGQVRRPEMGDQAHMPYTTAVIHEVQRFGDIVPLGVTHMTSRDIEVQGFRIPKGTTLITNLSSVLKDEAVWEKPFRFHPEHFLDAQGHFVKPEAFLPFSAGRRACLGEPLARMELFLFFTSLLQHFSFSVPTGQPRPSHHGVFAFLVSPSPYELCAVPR

| SMILES | IC50 (Hepatitis C virus [1]) [nM] | EC50 (Hepatitis C virus [2]) [nM] | also measured |
| --- | --- | --- | --- |
| CC(NC(=O)c1ccc2c(c1)nc(-c1ccoc1)n2C1CCCCC1)C(=O)Nc1cccc(/C=C/C(=O)O)c1 (racemic) | 900 | – | – |
| O=C(O)COc1ccc2[nH]cc(C[C@H](NC(=O)c3ccc4c(c3)nc(-c3ccoc3)n4C3CCCCC3)C(=O)O)c2c1 | 19 | – | – |
| C[C@@H](NC(=O)c1ccc2c(c1)nc(-c1ccoc1)n2C1CCCCC1)C(=O)Nc1ccc2[nH]c(C(=O)O)cc2c1 | 60 | > 40000 | – |
| CC(NC(=O)c1ccc2c(c1)nc(-c1ccoc1)n2C1CCCCC1)C(=O)Nc1cccc(C(=O)O)c1 (racemic) | 1610 | – | – |
| CC(=O)COc1ccc(NC(=O)C(C)NC(=O)c2ccc3c(c2)nc(-c2ccoc2)n3C2CCCCC2)cc1 (racemic) | 900 | – | – |
| CC(NC(=O)c1ccc2c(c1)nc(-c1ccoc1)n2C1CCCCC1)C(=O)Nc1ccc(-c2ccc(C(=O)O)o2)cc1 (racemic) | 450 | 28000 | – |
| CC(NC(=O)c1ccc2c(c1)nc(-c1ccoc1)n2C1CCCCC1)C(=O)Nc1ccc(C(=O)O)cc1 (racemic) | 390 | 30000 | – |
| O=C(N[C@@H](Cc1c[nH]c2ccc(O)cc12)c1cscn1)c1ccc2c(c1)nc(-c1ccoc1)n2C1CCCCC1 | 300 | 1700 | logD [3]: 3.8; solubility [4]: < 0.07 µg/mL; t1/2 (Liver microsomes): 26 min; IC50 (Cytochrome P450 1A2): > 30000 nM; IC50 (Cytochrome P450 2C9): 2300 nM; IC50 (Cytochrome P450 2C19): 2400 nM; IC50 (Cytochrome P450 2D6): 4000 nM; IC50 (Cytochrome P450 3A4): 400 nM |
| Cn1c(-c2ccoc2)c(C2CCCCC2)c2ccc(C(=O)N[C@@H](Cc3c[nH]c4ccc(O)cc34)c3cscn3)cc21 | 100 | 50 | – |
| O=C(O)/C=C/c1ccc(NC(=O)CNC(=O)c2ccc3c(c2)nc(-c2ccoc2)n3C2CCCCC2)cc1 | 280 | 41000 | – |
| C[C@H](NC(=O)c1ccc2c(c1)nc(-c1ccoc1)n2C1CCCCC1)C(=O)Nc1ccc(/C=C/C(=O)O)cc1 | 360 | 25000 | – |
| CC[C@@H](NC(=O)c1ccc2c(c1)nc(-c1ccoc1)n2C1CCCCC1)C(=O)Nc1ccc(/C=C/C(=O)O)cc1 | 400 | 6500 | – |
| C[C@@H](NC(=O)c1ccc2c(c1)nc(-c1ccoc1)n2C1CCCCC1)C(=O)Nc1ccc(/C=C/C(=O)O)cc1 | 130 | 6900 | Activity (Enterovirus C): inactive; Activity (Bos taurus): inactive; logD [3]: 2.2; solubility [4]: 171 µg/mL (≈ 325 µM); half-life at 10 µM [5]: 44 min; IC50 (Cytochrome P450 1A2): > 30000 nM; IC50 (Cytochrome P450 2C9): > 30000 nM; IC50 (Cytochrome P450 2C19): > 30000 nM; IC50 (Cytochrome P450 2D6): > 30000 nM; IC50 (Cytochrome P450 3A4): 12300 nM |
| CC(NC(=O)c1ccc2c(c1)nc(-c1ccoc1)n2C1CCCCC1)C(=O)Nc1ccc(CC(=O)O)cc1 (racemic) | 1520 | – | – |
| C[C@@H](NC(=O)c1ccc2c(c1)nc(-c1ccoc1)n2C1CCCCC1)C(=O)Nc1ccc2oc(C(=O)O)cc2c1 | 90 | > 42000 | – |
| CC(NC(=O)c1ccc2c(c1)nc(-c1ccoc1)n2C1CCCCC1)C(=O)Nc1ccc(/C=C/C(=O)O)cc1 (racemic) | 340 | 13000 | – |
